How the values were obtained:
[1] = target: Tubulin (Homo sapiens) (UniProt P68371+Q9H4B7+P0DPH7+P68366+Q13509+Q71U36+P04350+Q3ZCM7+P07437+P68363+Q9BQE3+Q6PEY2+Q13885+Q9BVA1+Q9BUF5); assay: Inhibition of tubulin (unknown origin) polymerization at 50 uM by turbidometric method relative to control; type: protein-complex assay
Outline: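 Microtubule protein of unstated origin was incubated with compound at 0° C. Polymerisation was started with 1 mM GTP and heating to 37° C. in cuvettes, and absorbance at 340 nm was followed over time in a thermostatically controlled spectrophotometer. Inhibition of polymerisation is expressed as percent relative to control.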

[2] = Cytotoxicity against human PC3 cells assessed as growth inhibition at 20 uM after 40 hrs by MTT assay relative to control; type: functional; conditions: PC-3, 40 h, read-out: GI
Outline: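 Human tumour cells in late log phase were grown in their own media containing 10% FBS and dispensed at 90 µL per well (1.1× final, 50000 to 200,000 cell/mL) onto 10 µL of compound (10× final) in 96-well plates, taken from screening plates prepared at 20 µM. After 40 hr at 37° C. in 5% CO2, MTT was added for 6 hours, the cells were lysed overnight with SDS/HCl, and plates were read at 590 nm. Growth inhibition is expressed relative to control.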

SMILES | inhibition [1] [%] | inhibition of growth at 20 µM [2] [%]
CCCC(Nc1cncc(-c2ccc(OCCCCN3CCN(C)CC3)c(OC)c2)n1)c1ccccc1 (configuration not stated) | > 50 | > 50
COc1cc(-c2cncc(N[C@@H](C)c3ccccc3)c2)ccc1O | > 50 | > 50
CCCC(Nc1cncc(-c2ccc(CNC(=O)C3CCNCC3)cc2)n1)c1ccccc1 (configuration not stated) | > 50 | > 50
CCCC(Nc1cncc(-c2ccc(NC(=O)NCC)c(OC)c2)n1)c1cncc(C)c1 (configuration not stated) | > 50 | > 50
CCCC(Nc1cncc(-c2ccc(OCCCN3CCN(C)CC3)c(OC)c2)n1)c1cccnc1 (configuration not stated) | – | < 50
CCCC(Nc1cncc(-c2ccc(OCCCN3CCOCC3)c(OC)c2)n1)c1ccccc1 (configuration not stated) | – | > 50
CCC[C@H](Nc1cncc(-c2ccc(NC(=O)NCC)c(OC)c2)n1)c1ccccn1 | > 50 | > 50
CCCC(Nc1cncc(-c2ccc(OCCN(CC)CC)c(OC)c2)n1)c1ccccc1 (configuration not stated) | > 50 | > 50
CCCC(Nc1cncc(-c2ccc(OCCCCN3CCOCC3)c(OC)c2)n1)c1ccccc1 (configuration not stated) | – | < 50
CC[C@H](Nc1cncc(-c2ccc(O)c(OC)c2)n1)c1ccccc1 | > 50 | –
CCC[C@H](Nc1ccnc(-c2ccc(NC(=O)NCC)c(OC)c2)n1)c1cccnc1 | > 50 | > 50
CCCC(Nc1cncc(-c2ccc(OCCCCN3CCCCC3)c(OC)c2)n1)c1ccccc1 (configuration not stated) | > 50 | > 50
CCC[C@H](Nc1cncc(-c2ccc(NC(=O)NCC)c(OC)c2)n1)c1cccnc1 | > 50 | > 50
CCNC(=O)Nc1ccc(-c2cncc(N[C@@H](COCC)c3ccccc3)n2)cc1OC | > 50 | > 50
CCCC(Nc1nnc(C)c(-c2cc(OC)c(OC)c(OC)c2)n1)c1ccccc1 (configuration not stated) | – | < 50
CCC[C@H](Nc1cncc(-c2ccc(NC(=O)CN(C)C)c(OC)c2)n1)c1cccnc1 | – | > 50
CCCC(Nc1cncc(-c2ccc(NC(=O)NCC)c(OC)c2)n1)c1cccc(F)c1 (configuration not stated) | > 50 | > 50
CCCC(Nc1cncc(-c2ccc(NC(=O)NCC)c(OC)c2)n1)c1cccnc1 (configuration not stated) | > 50 | > 50
CCCC(Nc1nnc(C)c(-c2ccc(O)c(OC)c2)n1)c1ccccc1 (configuration not stated) | > 50 | > 50
CCCC(Nc1cncc(-c2ccc(NC(=O)NCC)cc2)n1)c1cccnc1 (configuration not stated) | – | < 50
CCCC(Nc1cncc(-c2ccc(OCCCN3CCN(C)CC3)c(OC)c2)n1)c1ccccc1 (configuration not stated) | > 50 | > 50

SMILES | inhibition [1] [%] | inhibition of growth at 20 µM [2] [%]
CCCC(Nc1cncc(-c2ccc(CN)cc2)n1)c1ccccc1 (configuration not stated) | > 50 | > 50
CCCC(Nc1cncc(-c2ccc(OCCCN3CCOCC3)c(OC)c2)n1)c1cccnc1 (configuration not stated) | – | < 50
CCCC(Nc1cncc(-c2ccc(NC(=O)NCC)c(OC)c2)n1)c1cnccc1C (configuration not stated) | > 50 | > 50
CCCC(Nc1cncc(-c2ccc(CN3CCOCC3)cc2)n1)c1ccccc1 (configuration not stated) | – | < 50
COc1cc(-c2nc(N[C@H](C)c3ccccc3)nnc2C)ccc1O | – | < 50
CCNC(=O)Nc1ccc(-c2cncc(N[C@@H](COC)c3ccccc3)n2)cc1OC | > 50 | > 50
CCCC(Nc1cncc(-c2ccc(OCCCO)c(OC)c2)n1)c1ccccc1 (configuration not stated) | > 50 | > 50
COc1cc(-c2cncc(NC(C)c3ccc(-c4cccnc4)cc3)n2)ccc1O (configuration not stated) | > 50 | –
CC[C@H](Nc1nc(-c2ccc(O)c(OC)c2)ncc1C)c1cccnc1 | > 50 | > 50
CCCC(Nc1cncc(-c2ccc(CN3CCC[C@H]3CO)cc2)n1)c1ccccc1 (some centres not stated) | – | < 50
CCCC(Nc1cncc(-c2ccc(CN3CCCCC3)cc2)n1)c1ccccc1 (configuration not stated) | – | < 50
CCC[C@H](Nc1nc(-c2ccc(O)c(OC)c2)ncc1C)c1cccnc1 | > 50 | > 50
CCCC(Nc1cncc(-c2ccc(OCCCn3ccnc3)c(OC)c2)n1)c1ccccc1 (configuration not stated) | > 50 | > 50
COc1cc(-c2nc(N[C@H](C)c3ccccc3)nnc2C)cc(OC)c1OC | – | < 50
CCCC(Nc1cncc(-c2ccc(NC(=O)NCCCN3CCOCC3)c(OC)c2)n1)c1cccnc1 (configuration not stated) | > 50 | > 50
CCCC(Nc1cncc(-c2ccc(OCCCN3CCCC3)c(OC)c2)n1)c1cccnc1 (configuration not stated) | – | < 50
COc1cc(-c2cncc(NC(C)c3cccc(NC(=O)c4cccnc4)c3)n2)ccc1O (configuration not stated) | > 50 | –
CCCC(Nc1cncc(-c2ccc(OCCCCO)c(OC)c2)n1)c1ccccc1 (configuration not stated) | > 50 | > 50
CCCC(Nc1cncc(-c2ccc(C(=O)NCCCN3CCOCC3)cc2)n1)c1ccccc1 (configuration not stated) | – | < 50
CCCC(Nc1cncc(-c2ccc(NC(=O)NCC)c(C)c2)n1)c1ccccn1 (configuration not stated) | > 50 | > 50
COc1cc(-c2cncc(NC(C)c3cccc(NC(=O)[C@H]4CCCN4)c3)n2)ccc1O (some centres not stated) | > 50 | –

SMILES | inhibition [1] [%] | inhibition of growth at 20 µM [2] [%]
CCCC(Nc1cc(-c2ccc(O)c(OC)c2)ncn1)c1cccnc1 (configuration not stated) | > 50 | > 50
COc1cc(-c2cncc(N[C@@H](C)c3ccccc3)n2)ccc1O | > 50 | –
CCCC(Nc1cncc(-c2ccc(CN3CCN(C)CC3)cc2)n1)c1ccccc1 (configuration not stated) | – | < 50
CCCC(Nc1cncc(-c2ccc(NC(=O)NCCCN(CC)CC)c(OC)c2)n1)c1cccnc1 (configuration not stated) | – | < 50
CCCC(Nc1cncc(-c2ccc(C(=O)NCCCN(CC)CC)cc2)n1)c1ccccc1 (configuration not stated) | – | < 50
CCCC(Nc1cncc(-c2ccc(OCCN(CC)CC)c(OC)c2)n1)c1cncc(C)c1 (configuration not stated) | – | < 50
COc1cc(-c2ncc(C)c(NC(CCO)c3ccccc3)n2)ccc1O (configuration not stated) | – | < 50
CCCC(Nc1cncc(-c2ccc(C(=O)NCCCCCN)c(C)c2)n1)c1cccnc1 (configuration not stated) | – | < 50
CCCC(Nc1cncc(-c2ccc(NC(=O)c3cccnc3)c(OC)c2)n1)c1cccnc1 (configuration not stated) | – | < 50
CCCC(Nc1cncc(-c2ccc(CN3CCC(O)CC3)cc2)n1)c1ccccc1 (configuration not stated) | – | < 50
CCCC(Nc1cncc(-c2ccc(CNC(=O)C3CCC(=O)N3)cc2)n1)c1ccccc1 (configuration not stated) | – | < 50
CCCC(Nc1cncc(-c2ccc(NC(=O)N3CCN(C)CC3)c(OC)c2)n1)c1cccnc1 (configuration not stated) | – | > 50
CCCC(Nc1cncc(-c2ccc(C(=O)N3CCOCC3)cc2)n1)c1ccccc1 (configuration not stated) | – | < 50
CCCC(Nc1cncc(-c2cc(OC)c(OC)c(OC)c2)c1)c1ccccc1 (configuration not stated) | – | > 50
CCNC(=O)Nc1ccc(-c2cncc(NC(C)c3cccnc3)n2)cc1OC (configuration not stated) | – | < 50
CCCC(Nc1cncc(-c2ccc(CN(C)C)cc2)n1)c1ccccc1 (configuration not stated) | – | < 50
CCCC(Nc1cncc(-c2ccc(NC(=O)C3CCNCC3)c(OC)c2)n1)c1cccnc1 (configuration not stated) | – | < 50
CCCC(Nc1cncc(-c2ccc(C(=O)N3CCN(C)CC3)cc2)n1)c1ccccc1 (configuration not stated) | – | < 50
CCCC(Nc1cncc(-c2ccc(CO)c(OC)c2)n1)c1cccnc1 (configuration not stated) | – | < 50
CCCC(Nc1cncc(-c2ccc(C(=O)NCCN(C)C)cc2)n1)c1ccccc1 (configuration not stated) | – | < 50

— ChEMBL document CHEMBL3882736, “Modulation microtubules diseases; antiproliferative agents; antiinflamamtory agents” (2011)
